Reference: patent publication US20040115801A1, “Model epithelial cell cultures” (KINETANA GROUP INC., priority 2002, published 2004)
Like-named read-outs stand apart in the source and are kept apart here. Values belong to the compound of their own block, whether it stands above or below them.

Tests used:
[1] = test system: cell layer of the invention; experiment: Ginkgo extract ingredient profiles, apical vs basal side of the cell layer; format: in vitro ADME, human
Experimental: FIG. 8. Representative chromatogram of intact flavonol glycosides determined in fluid from the apical side of the cell layer 60 minutes after application of standardized ginkgo extract (equivalent of 10 mg extract).
FIG. 9. Representative chromatogram of intact flavonol glycosides determined in fluid from the basal side of the cell layer 60 minutes after application of standardized ginkgo extract (equivalent of 10 mg extract).
FIG. 10. Representative chromatogram of ginkgolides determined in fluid from the apical side of the cell membrane 60 minutes after application of standardized ginkgo extract (equivalent of 20 mg extract).
FIG. 11. Representative chromatogram of ginkgolides determined in fluid from the basal side of the cell layer 60 minutes after application of standardized ginkgo extract (equivalent of 400 mg extract).
In some embodiments, compositions for processing in accordance with the methods of the invention may include natural substances, such as crude extracts or formulations from natural products such as plants, which may be dissolved or suspended in an aqueous solution, such as a pH buffered solution or an artificial intestinal fluid. In alternative embodiments, a sample of these substances may be treated with artificial gastric juices to test prior to processing with the cell layers of the invention, for example to test for potential decomposition of ingredients under acidic conditions. In some embodiments, a known concentration of the solution or composition for processing, in either buffered solution or artificial intestinal fluid, may be applied to the apical or first side of the cell layer (membrane). Subsequently, one or more samples may be collected from the basal or second side of the cell layer, which may for example contain a cell culture medium or human plasma or components of human plasma such as albumin. In alternative embodiments, samples may be taken from the apical and basal sides for ingredient identification and/or quantification. Common analytical approaches such as high performance liquid chromatography (HPLC), mass spectrometry (MS), gas chromatography (GC), LC/MS, or GC/MS may then be used for the identification or quantification of the components present in the physiologically modified composition.
Although the invention may be used to conduct permeability screening in a manner similar to how Caco-2 the industry standard is used, it has a unique and novel application in identifying absorbable active ingredients in natural health products (or natural products or nutraceuticals or botanicals or herbals or dietary supplements) or any products that contain mixtures of ingredients of interest (as marker substances or active ingredients) or botanicals. The idea is as follows. Similar to pharmaceutical development, components are not considered active unless they are absorbed into the blood stream. A number of methods have been developed to measure the activities of botanical extracts; very few have measured the active components, let alone absorbable components that are active. It has been shown time and again that marker components that have in vitro activities are not absorbed. The active ingredient profile determined using in vitro methods is usually erroneous; this is particularly true for the proportion of the ingredients required because the absorption of individual components is potentially different. A good example is the determination of the ingredient profiles of Ginkgo biloba. People think that the ratios of the ingredients in the herb are important (See FIGS. 8, 10, Tables 3, 4, apical side ratios). But it is only the absorbed ingredients that can have activity and not all ingredients are absorbed or absorbed at the same rate. Therefore, the profiles of absorbed ingredients will differ from the profiles of ingredients in the product, and it is the absorbed ingredient profiles that are biologically most relevant. […]

[2] = test system: SCBN cells; experiment: TEER of SCBN cell layers in different culture conditions; format: cell-based, human; conditions: SCBN cells on rat-tail collagen, supplemented base medium; day 3 (48 hours after medium change)
Experimental: FIG. 1: illustrates the TEER values of SCBN cells in different culture conditions. TEER measurement was conducted by using EVOM voltmeter from World Precision Instrument.
TEER values may be assayed using any conventional equipment capable of measuring electrical resistance, such as […] from World Precision Instruments.
(§1) To assay the structure of microvilli and to measure TEER, SCBN cells were cultured with DMEM media supplemented with FBS and collected at 24 hours post confluence. Harvested cells were seeded at the density of 1E5 cells/well in Falcon multiple insert plates (0.31 cm2/well). […] Forty-eight hours after medium change, SCBN cells were processed for SEM examination following conventional SEM sample preparation. Assessments of microvilli structure were made from SEM images.

[3] = test system: SCBN cells; experiment: Microvilli structure of SCBN cells by SEM; format: cell-based, human; conditions: SEM 48 hours after medium change; for length of microvilli: 5 μM Ro31-8220 and/or 5 mM sodium butyrate in base medium
Experimental: as §1

[4] = test system: SCBN cells; experiment: Enzyme expression in SCBN cell lysate; format: cell-based, human; conditions: 5 μM Ro 31-8220 alone
Experimental: FIG. 2: illustrates the expression of enzymes in SCBN cells cultured under culture conditions of the invention. Enzyme activity is expressed as milliunit per mg of protein. One unit equals the digestion of one μmole of substrate per minute at 37° C. AP: Alkaline phosphatase; DPP: dipeptidylpeptidase-IV; APN: aminopeptidase N; APA: aminopeptidase A.
To assay patterns of enzyme expression, SCBN cells were cultured with DMEM media supplemented with FBS and collected at 24 hours post confluence. SCBN cells were seeded with DMEM supplemented with FBS at 1E5 cells/well in non-coated and rat-tail collagen-coated Falcon multiple insert plate. Twenty-four hours after seeding media were change with DMEM supplemented with FBS with DMEM supplemented with FBS in non-coated inert wells whereas the media in rat-tail collagen-coated wells were changed with Kinetana base media supplemented with 5 μM of Ro31-8220 and 5 mM of sodium butyrate. Forty-eight hours after medium change, SCBN cells were lysed with ⅕ strength of Tris buffered saline on ice and the whole cell lysate was assayed for enzyme activity by incubating the cell lysate with specific substrate for 60 minutes at 37° C. […]

[5] = test system: monolayers of the invention (Kinetana cell line); experiment: Permeability across monolayers of the invention; format: in vitro ADME, human
Text: (§2) (He, Murby et al. 1998) relate the permeability profile of PEG oligomers to tight junction pore size. Their data in CaCo-2 correspond very closely to Kinetana's data with Caco-2, in that there is a steep drop-off in permeability between molecular weights 200 and 450, then a leveling off. The invention permeability, in contrast, declines slowly and continuously from MW 200 to over 1,000 Da (FIG. 3).
(§3) The bioavailability of PEG 900 is reported to be 10% (Yee 1997).

[6] = test system: Caco-2; experiment: Permeability across CaCo-2 monolayers; format: in vitro ADME, human
Text: as §2, §3

[7] = test system: Kinetana cells using the Buret growth condition; experiment: Permeability in Kinetana cells using the Buret growth condition; format: in vitro ADME, human
Text: The proprietary growth conditions result in a different paracellular diffusion performance of the Kinetana cell line compared with CaCo-2 and T-84 human colon cancer cell lines (He, Murby et al. 1998) and also SCBN with the Buret condition. The proprietary condition correlates better with human paracellular marker permeability, and this appears to relate to the differences in tight junction pore size between the new method and the others. The evidence for these claims is as follows.
as §3

[8] = Yee 1997; cited from earlier work
[9] = apical side (pre-absorption), six commercial ginkgo extract samples
[10] = basal side (absorbed ingredients), six commercial ginkgo extract samples

Compound: CC(C)(C)[C@]1(O)CC2OC(=O)CC23C(=O)OC2OC(=O)[C@H](O)C231 (some centres unmarked) [Bilobalide]
Ginkgo terpene lactone components ratio to Ginkgolide A, Apical side Mean [1, 9]: 0.66
Ginkgo terpene lactone components ratio to Ginkgolide A, Basal side Mean [1, 10]: 0.44

Compound: C[C@@H]1C(=O)O[C@H]2C[C@@]34[C@H]5C[C@@H](C(C)(C)C)[C@]36[C@@H](OC(=O)[C@@H]6O)O[C@@]4(C(=O)O5)[C@]21O [Ginkgolide A]
Ginkgo terpene lactone components ratio to Ginkgolide A, Apical side Mean [1, 9]: 1.00
Ginkgo terpene lactone components ratio to Ginkgolide A, Basal side Mean [1, 10]: 1.00

Ginkgo terpene lactone components ratio to Ginkgolide A, Apical side Mean [1, 9]: 0.20
Ginkgo terpene lactone components ratio to Ginkgolide A, Basal side Mean [1, 10]: 0.12
Compound: CC1C(=O)OC2C(O)C34C5CC(C(C)(C)C)C36C(OC(=O)C6O)OC4(C(=O)O5)C12O (centres unmarked) [Ginkgolide B]

Compound: Cn1cc(C2=C(c3cn(CCCSC(=N)N)c4ccccc34)C(=O)NC2=O)c2ccccc21 [Ro31-8220, 2-{1-[3-(amidinothio)propyl]-1H-indol-3-yl}-3-(1-meethylindol-3-yl)-maleimide methanesulfonate]
TEER value [2]: about 680 ohm.cm^2
length of microvilli [3]: did not measurably increase
percentage of cells with long microvilli ([3]; compared with base medium): did not measurably increase
expression of alkaline phosphatase activity [4]: up-regulate

Ginkgo intact flavone components ratio to Rutin, Apical Mean [1, 9]: 1.00
Ginkgo intact flavone components ratio to Rutin, basal Mean [1, 10]: 1.00
Compound: C[C@@H]1O[C@@H](OC[C@H]2O[C@@H](Oc3c(-c4ccc(O)c(O)c4)oc4cc(O)cc(O)c4c3=O)[C@H](O)[C@@H](O)[C@@H]2O)[C@H](O)[C@H](O)[C@H]1O [Rutin]

Compound: CCCC(=O)[O-].[Na+] [sodium butyrate]
TEER value [2]: about 175 ohm.cm^2
length of microvilli [3]: < 0.1 um

Compound: Ginkgolide C
Ginkgo terpene lactone components ratio to Ginkgolide A, Apical side Mean [1, 9]: 0.32
Ginkgo terpene lactone components ratio to Ginkgolide A, Basal side Mean [1, 10]: 0.20

Ginkgo terpene lactone components ratio to Ginkgolide A, Apical side Mean [1]: 0.86
Ginkgo terpene lactone components ratio to Ginkgolide A, Basal side Mean [1]: 0.55
Compound: Ginkgolide J

permeability ([5]; conditions of the invention): ~1 ×10⁻⁶ cm/s
predicted human bioavailability ([5]; predicted from permeability under conditions of the invention): around 12%
permeability [6]: too low to be measured
permeability [7]: too low to be measured
Compound: PEG 900
bioavailability (reported) [8]: 10%
